For one test, the target named is SOS1 (Homo sapiens (Human), UniProt Q07889). In words: Ras-SOS interaction assay (HTRF). It is filed as biochemical.
The test system of test [1] is NCI-H1975 cells (EGFR T790M L858R). In words: EGFR-SOS cellular inhibition assay (CellTiter-Glo, 3D). In kind it is cell-based. To be noted: Homo sapiens. (Cellular ATP, detected with luciferase, serves as a proxy for viable cell number.)
In test [2] the test system is MIA PaCa-2 cells (K-Ras G12C). In words: Ras-SOS cellular growth inhibition assay (CellTiter-Glo, 3D). It is filed as cell-based. To be noted: Homo sapiens. In a few lines: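 MIA PaCa-2 cells grown in ultra-low-attachment plates (3D) in DMEM/Ham's F12 with 10% FCS and 2.5% horse serum, treated the day after seeding with a 9-point 3-fold compound series for about 5 days. Viability by CellTiter-Glo luminescence; IC50 from four-parameter fit.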

The mark [3] stands for this setting: K-RasG13D, read-out: IC50 value against SOS1.
Setting [4] is: 120 h, NCI-H1975, 3D proliferation, about 5 days, read-out: Bio-Cell-Prolif-3D (H1975 IC50).
The mark [5] stands for this setting: NCI-H1975, EGFR T790M L858R, read-out: IC50 in inhibiting growth of NCI-H1975 cell line.
Where [6] appears, read: MIA PaCa-2, 120 h, MIA PaCa-2, 3D proliferation, about 5 days, read-out: Bio-Cell-Prolif-3D (MiaPaca2 IC50).
Setting [7] is: K-RasG13D utilized, read-out: IC50 inhibition of SOS.
Where [8] appears, read: MIA PaCa-2, MIA PaCa-2, read-out: IC50 in inhibiting MIA PaCa-2 cell growth.

In general, IC50 refers to the point on the concentration scale where inhibition reaches its midpoint.

Read-outs that look alike come from different tables or passages of the source.

SOS1, sequence (Q07889 564-1049): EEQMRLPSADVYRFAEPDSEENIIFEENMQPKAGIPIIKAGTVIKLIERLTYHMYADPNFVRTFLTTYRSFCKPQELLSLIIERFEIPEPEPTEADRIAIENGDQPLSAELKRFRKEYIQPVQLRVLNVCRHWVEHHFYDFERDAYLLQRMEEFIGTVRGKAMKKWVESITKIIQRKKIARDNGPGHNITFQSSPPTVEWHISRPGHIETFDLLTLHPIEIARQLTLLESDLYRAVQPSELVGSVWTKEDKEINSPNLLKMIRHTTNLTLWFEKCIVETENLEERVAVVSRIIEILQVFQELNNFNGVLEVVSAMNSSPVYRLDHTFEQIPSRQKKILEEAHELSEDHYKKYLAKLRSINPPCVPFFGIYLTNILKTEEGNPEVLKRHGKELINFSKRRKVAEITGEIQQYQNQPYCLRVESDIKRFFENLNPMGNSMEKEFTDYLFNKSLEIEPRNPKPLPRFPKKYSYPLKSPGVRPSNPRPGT

`Cc1nc(N[C@H](C)c2cccc(C(F)F)c2F)c2cc(C3(C#N)CC3)c(O[C@H]3CCOC3)nc2n1` [Compound 297, 1-(4-(((R)-1-(3-(difluoromethyl)-2-fluorophenyl)ethyl)amino)-2-methyl-7-(((S)-tetrahydrofuran-3-yl)oxy)pyrido[2,3-d]pyrimidin-6-yl)cyclopropane-1-carbonitrile]: the IC50 on SOS1 (setting [3]) is below 0.05 µM; in test [1] (setting [4]), at most 1 µM; in test [1] (setting [5]), below 0.5 µM; in test [2] (setting [6]), 1 to 10 µM.

Consider `Cc1nc(N[C@H](C)c2cccc(C(F)F)c2F)c2cc(C3(C#N)CC3)c(OCC3COC3)nc2n1` [Compound 299, (R)-1-(4-((1-(3-(difluoromethyl)-2-fluorophenyl)ethyl)anrino)-2-methyl-7-(oxetan-3-ylmethoxy)pyrido[2,3-d]pyrimidin-6-yl)cyclopropane-1-carbonitrile], for which the IC50 on SOS1 (setting [7]) is below 0.1 µM; on SOS1 (setting [3]), below 0.05 µM; in test [1] (setting [4]) it was at most 1 µM; in test [2] (setting [6]), 1 to 10 µM.

As to `COc1nc2nc(C)nc(N[C@H](C)c3cccc(C(F)(F)F)c3F)c2cc1C1CCN(C(=O)[C@@H]2COCCO2)CC1` [Compound 301, ((S)-1,4-dioxan-2-yl)(4-(4-(((R)-1-(2-fluoro-3-(trifluoromethyl)phenyl)ethyl)amino)-7-methoxy-2-methylpyrido[2,3-d]pyrimidin-6-yl)piperidin-1-yl)methanone], the 50% inhibitory concentration (IC50) on SOS1 (setting [7]) is below 0.1 µM; on SOS1 (setting [3]) it was below 0.05 µM; in test [1] (setting [4]), at most 1 µM; in test [1] (setting [5]) it was below 0.5 µM; in test [2] (setting [6]) it was 1 to 10 µM.

As for `COc1nc2nc(C)nc(N[C@H](C)c3cccc(C(F)(F)F)c3F)c2cc1C1CCN(C(=O)CN(C)C)CC1` [Compound 302, (R)-2-(dimethylamino)-1-(4-(4-((1-(2-fluoro-3-(trifluoromethyl)phenyl)ethyl)amino)-7-methoxy-2-methylpyrido[2,3-d]pyrimidin-6-yl)piperidin-1-yl)ethan-1-one], the IC50 on SOS1 (setting [7]) is below 0.1 µM; at SOS1 (setting [3]) it was below 0.05 µM; in test [1] (setting [4]) it was at most 1 µM; in test [1] (setting [5]), below 0.5 µM; in test [2] (setting [6]) it was at most 1 µM.

As to `COc1nc2nc(C)nc(N[C@H](C)c3cccc(C(F)(F)F)c3F)c2cc1C1CCN(C(=O)CO)CC1` [Compound 304, (R)-1-(4-(4-((1-(2-fluoro-3-(trifluoromethyl)phenyl)ethyl)amino)-7-methoxy-2-methylpyrido[2,3-d]pyrimidin-6-yl)piperidin-1-yl)-2-hydroxyethan-1-one], the IC50 at SOS1 (setting [7]) is below 0.1 µM; at SOS1 (setting [3]), below 0.05 µM; in test [1] (setting [4]) it was at most 1 µM; in test [1] (setting [5]), below 0.5 µM; in test [2] (setting [6]), at most 1 µM; in test [2] (setting [8]), below 0.5 µM.

As to `COc1nc2nc(C)nc(N[C@H](C)c3cccc(C(F)(F)CO)c3F)c2cc1N1CCS(=O)(=O)CC1` [Compound 307, (R)-4-(4-((1-(3-(1,1-difluoro-2-hydroxyethyl)-2-fluorophenyl)ethyl)amino)-7-methoxy-2-methylpyrido[2,3-d]pyrimidin-6-yl)thiomorpholine 1,1-dioxide], the IC50 at SOS1 (setting [7]) was below 0.1 µM; at SOS1 (setting [3]) it was below 0.05 µM; in test [1] (setting [4]), at most 1 µM; in test [2] (setting [6]) it was at most 1 µM; in test [2] (setting [8]), below 0.5 µM.

With `COc1nc2nc(C)nc(N[C@H](C)c3cccc(C(F)(F)F)c3F)c2cc1C1CCN(C)CC1` [Compound 309, (R)-N-(1-(2-fluoro-3-(trifluoromethyl)phenyl)ethyl)-7-methoxy-2-methyl-6-(1-methylpiperidin-4-yl)pyrido[2,3-d]pyrimidin-4-amine], the IC50 was below 0.1 µM at SOS1 (setting [7]); below 0.05 µM at SOS1 (setting [3]); at most 1 µM in test [1] (setting [4]); below 0.5 µM in test [1] (setting [5]); at most 1 µM in test [2] (setting [6]).

As to `COc1nc2nc(C)nc(N[C@H](C)c3cccc(C(F)(F)F)c3F)c2cc1N1CCN(C(=O)CN(C)C)CC1` [Compound 312, (R)-2-(dimethylamino)-1-(4-(4-((1-(2-fluoro-3-(trifluoromethyl)phenyl)ethyl)amino)-7-methoxy-2-methylpyrido[2,3-d]pyrimidin-6-yl)piperazin-1-yl)ethan-1-one], the IC50 on SOS1 (setting [7]) was below 0.1 µM; at SOS1 (setting [3]), below 0.05 µM; in test [1] (setting [4]), at most 1 µM; in test [1] (setting [5]), below 0.5 µM; in test [2] (setting [6]) it was at most 1 µM; in test [2] (setting [8]) it was below 0.5 µM.

On to `COc1nc2nc(C)nc(N[C@H](C)c3cccc(C(F)(F)F)c3F)c2cc1N1CCN(C(=O)CO)CC1` [Compound 313, (R)-1-(4-(4-((1-(2-fluoro-3-(trifluoromethyl)phenyl)ethyl)amino)-7-methoxy-2-methylpyrido[2,3-d]pyrimidin-6-yl)piperazin-1-yl)-2-hydroxyethan-1-one], for which the IC50 on SOS1 (setting [7]) is below 0.1 µM; at SOS1 (setting [3]), below 0.05 µM; in test [1] (setting [4]), at most 1 µM; in test [1] (setting [5]), below 0.5 µM; in test [2] (setting [6]), at most 1 µM; in test [2] (setting [8]), below 0.5 µM.

For `CCN1CCN(c2cc3c(N[C@H](C)c4cccc(C(F)F)c4F)nc(C)nc3nc2OCCOC)CC1` [Compound 314, (R)-N-(1-(3-(difluoromethyl)-2-fluorophenyl)ethyl)-6-(4-ethylpiperazin-1-yl)-7-(2-methoxyethoxy)-2-methylpyrido[2,3-d] pyrimidin-4-amine], the IC50 was below 0.1 µM on SOS1 (setting [7]); below 0.05 µM on SOS1 (setting [3]); at most 1 µM in test [1] (setting [4]); at most 1 µM in test [2] (setting [6]); below 0.5 µM in test [2] (setting [8]).

In the case of `COc1nc2ncnc(N[C@H](C)c3cccc(C(F)F)c3F)c2cc1C1CCS(=O)(=O)CC1` [Compound 315, (R)-4-(4-((1-(3-(difluoromethyl)-2-fluorophenyl)ethyl)amino)-7-methoxypyrido[2,3-d]pyrimidin-6-yl)tetrahydro-2H-thiopyran 1,1-dioxide], the IC50 at SOS1 (setting [7]) is below 0.1 µM; in test [1] (setting [4]), at most 1 µM; in test [1] (setting [5]) it was below 0.5 µM; in test [2] (setting [6]) it was 1 to 10 µM.

Take `CC(C)N1CCC(c2cc3c(N[C@H](C)c4cccc(C(F)F)c4F)ncnc3nc2OC2COC2)CC1` [Compound 317, (R)-N-(1-(3-(difluoromethyl)-2-fluorophenyl)ethyl)-6-(1-isopropylpiperidin-4-yl)-7-(oxetan-3-yloxy)pyrido[2,3-d] pyrimidin-4-amine]: the IC50 at SOS1 (setting [7]) is below 0.1 µM; on SOS1 (setting [3]), below 0.05 µM; in test [1] (setting [4]) it was at most 1 µM; in test [1] (setting [5]), below 0.5 µM; in test [2] (setting [6]), 1 to 10 µM.

`CCN1CCC(c2cc3c(N[C@H](C)c4cccc(C(F)F)c4F)nc(C)nc3nc2OC2CN(C)C2)CC1` [Compound 318]: the IC50 at SOS1 (setting [7]) was below 0.1 µM; on SOS1 (setting [3]) it was below 0.05 µM; in test [1] (setting [4]) it was at most 1 µM; in test [2] (setting [6]), at most 1 µM.

In the case of `COc1nc2nc(C)nc(N[C@H](C)c3cccc(C(F)F)c3F)c2cc1C1(C#N)CCOCC1` [Compound 320, (R)-4-(4-((1-(3-(difluoromethyl)-2-fluorophenyl)ethyl)amino)-7-methoxy-2-methylpyrido[2,3-d]pyrimidin-6-yl)tetrahydro-2H-pyran-4-carbonitrile], the IC50 on SOS1 (setting [7]) is below 0.1 µM; on SOS1 (setting [3]), below 0.05 µM; in test [1] (setting [4]), at most 1 µM; in test [1] (setting [5]), below 0.5 µM; in test [2] (setting [6]), at most 1 µM.

Regarding `COc1nc2nc(C)nc(N[C@H](C)c3cccc(C(F)(F)C(C)(C)O)c3F)c2cc1C1CCS(=O)(=O)CC1` [Compound 321, (R)-4-(4-((1-(3-(1,1-difluoro-2-hydroxy-2-methylpropyl)-2-fluorophenyl)ethyl)amino)-7-methoxy-2-methylpyrido[2,3-d]pyrimidin-6-yl)tetrahydro-2H-thiopyran 1,1-dioxide], the IC50 on SOS1 (setting [7]) was below 0.1 µM; on SOS1 (setting [3]), below 0.05 µM; in test [1] (setting [4]), at most 1 µM; in test [1] (setting [5]), below 0.5 µM; in test [2] (setting [6]), at most 1 µM.

As for `COc1nc2nc(C)nc(N[C@H](C)c3cccc(C(F)(F)C(C)(C)O)c3F)c2cc1N1CCN(C)CC1` [Compound 323, (R)-1,1-difluoro-1-(2-fluoro-3-(1-((7-methoxy-2-methyl-6-(4-methylpiperazin-1-yl)pyrido[2,3-d]pyrimidin-4-yl)amino)ethyl)phenyl)-2-methylpropan-2-ol], the IC50 on SOS1 (setting [7]) was below 0.1 µM; at SOS1 (setting [3]), below 0.05 µM; in test [1] (setting [4]) it was at most 1 µM; in test [1] (setting [5]), below 0.5 µM; in test [2] (setting [6]), at most 1 µM.

For `COc1nc2nc(C)nc(N[C@H](C)c3cccc(C(F)(F)C(C)(C)O)c3)c2cc1N1CCN(C)CC1` [Compound 324, (R)-1,1-difluoro-1-(3-(1-((7-methoxy-2-methyl-6-(4-methylpiperazin-1-yl)pyrido[2,3-d]pyrimidin-4-yl)amino)ethyl)phenyl)-2-methylpropan-2-ol], the IC50 is below 0.1 µM at SOS1 (setting [7]); below 0.05 µM at SOS1 (setting [3]); at most 1 µM in test [1] (setting [4]); below 0.5 µM in test [1] (setting [5]); at most 1 µM in test [2] (setting [6]); below 0.5 µM in test [2] (setting [8]).

Turning to `COc1nc2nc(OC[C@@H]3CCCN3C)nc(N[C@H](C)c3cccc(C(F)F)c3F)c2cc1C1(C#N)CC1` [Compound 326, 1-(4-(((R)-1-(3-(difluoromethyl)-2-fluorophenyl)ethyl)amino)-7-methoxy-2-(((S)-1-methylpyrrolidin-2-yl)methoxy)pyrido[2,3-d]pyrimidin-6-yl)cyclopropane-1-carbonitrile], the IC50 on SOS1 (setting [7]) is below 0.1 µM; on SOS1 (setting [3]), below 0.05 µM; in test [1] (setting [4]), at most 1 µM; in test [1] (setting [5]), below 0.5 µM; in test [2] (setting [6]) it was at most 1 µM.
